≈ marks a conversion by molar mass, not a printed value. Like-named read-outs stand apart in the source and are kept apart here.
What was measured:
[1] = tested on: Candida albicans A9540; test: MIC, two-fold agar dilution, C. albicans A9540; type: cell-based
Protocol: (§1) Minimum inhibitory concentrations (MICs) of nine 4'-N-substituted pradimicin derivatives were determined by two-fold agar dilution method on phosphate-buffered yeast morphology agar (YMA, pH 7.0, Difco Laboratories). A 5-μl of fungal cell suspension containing 2×10^6 cells/ml (2×10^7 cells/ml for Trichophyton mentagrophytes) were spotted on the surface of the agar plates containing test compound. MICs were recorded after 40-hour incubation at 28° C. except for T. mentagrophytes, which required 60-hour incubation to produce visually evaluable growth on the drug-free control plates and were defined as the lowest antibiotic concentrations showing no growth or less than five discrete colonies per spot.
(§2) Medium: yeast morphology agar + 1/15 M phosphate buffer (pH 7.0)
(§3) Incubation conditions: 28° C., 40 hours (C. albicans ATCC 38247 & T.
(§4) Medium: Yeast morphology agar + 1/15 phosphate buffer (pH 7.0).

[2] = tested on: Candida albicans ATCC 38247; test: MIC, two-fold agar dilution, C. albicans ATCC 38247; type: cell-based; settings: ATCC38247, YMA pH 7.0, 28° C., 60 hours (table footnote)
Protocol: as §1, §2, §3
(§5) mentagrophytes #4329: 28° C., 60 hours).
as §4

[3] = tested on: Candida albicans 83-2-14; test: MIC, two-fold agar dilution, C. albicans 83-2-14; type: cell-based; settings: 83214, YMA pH 7.0, 28° C., 40 hours
Protocol: as §1, §2, §3, §4

[4] = tested on: Aspergillus fumigatus IAM 2034; test: Therapeutic efficacy in Aspergillus fumigatus systemic infection in mice; type: in vivo, male ICR mice infected with Aspergillus fumigatus IAM 2034; settings: IAM2034, 480 h; for responders at 6.3 mg/kg: 6.3 mg/kg iv; for responders at 6.3 mg/kg / responders at 12.5 mg/kg / responders at 25 mg/kg / responders at 50 mg/kg: 20th day post-infection, read-out: S/T (No. of survivors/tested) (converted); for responders at 12.5 mg/kg: 12.5 mg/kg iv; for responders at 25 mg/kg: 25 mg/kg iv; for responders at 50 mg/kg: 50 mg/kg iv
Protocol: (§6) The in vivo therapeutic efficacies of seven 4'-N-substituted pradimicin derivatives, KHM-1, KHM-2, KHM-3, KHM-4, KHM-5, KHM-6 and KHM-7 were evaluated in the mouse infected with Candida albicans A9540 and Aspergillus fumigatusIAM 2034. Groups of five specific-pathogen-free male ICR mice weighing 20-25 g at each dose level were intravenously infected with approximately 10 times the 50% lethal dose of C. albicans A9540 (1×10^6 cells/mouse) or A. fumigatus IAM 2034 (1×10^7 cells/mouse). Immediately after the fungal infection, test compounds dissolved with 10% DMSO in distilled water were intravenously given to the mouse at the dosed volume of 0.1 ml/10 g of body weight. […] Untreated control animals died 7 to 13 days post-infection.

[5] = tested on: Candida tropicalis IFO 10241; test: MIC, two-fold agar dilution, C. tropicalis IFO 10241; type: cell-based; settings: IFO10241, YMA pH 7.0, 28° C., 40 hours
Protocol: as §1, §2, §3, §4

[6] = tested on: Candida tropicalis 85-8; test: MIC, two-fold agar dilution, C. tropicalis 85-8; type: cell-based; settings: 858, YMA pH 7.0, 28° C., 40 hours
Protocol: as §1, §2, §3, §4

[7] = tested on: Saccharomyces cerevisiae ATCC 9763; test: MIC, two-fold agar dilution, S. cerevisiae ATCC 9763; type: cell-based; settings: ATCC9763, YMA pH 7.0, 28° C., 40 hours
Protocol: as §1, §2, §3, §4

[8] = Water solubility at neutral pH in PBS containing Ca^2+/Mg^2+; type: physicochemical; settings: pbs with ca2+/mg2+; Table 3; water-solubility at neutral pH in phosphate buffered saline containing Ca^2+/Mg^2+
Protocol: The compounds of the invention have good water solubility. Typically, the water solubility is greater than 10 mg/ml when measured at neutral pH in PBS containing Ca^2+ /Mg^2+, preferably greater than 20 mg/ml.
^2) Water-solubility at neutral pH in phosphate buffered saline
containing Ca^2+ /Mg^2+.

[9] = tested on: Candida albicans ATCC 32354; test: MIC, two-fold agar dilution, C. albicans ATCC 32354; type: cell-based; settings: ATCC32354, YMA pH 7.0, 28° C., 40 hours
Protocol: as §1, §2, §3, §4

[10] = tested on: Cryptococcus neoformans IAM 4514; test: MIC, two-fold agar dilution, C. neoformans IAM 4514; type: cell-based; settings: IAM4514
Protocol: as §1, §2, §3, §4

[11] = tested on: Trichophyton mentagrophytes #4329; test: MIC, two-fold agar dilution, T. mentagrophytes #4329; type: cell-based
Protocol: as §1, §2, §3, §5, §4

[12] = tested on: Candida albicans A9540; test: animal or person; type: in vivo, male ICR mice infected with Candida albicans A9540; settings: Candida albicans; for ED50: Table 2, 95% confidence limits in parentheses, read-out: PD50 (50% protection dose)
Protocol: as §6

[13] = tested on: Cryptococcus neoformans D49; test: MIC, two-fold agar dilution, C. neoformans D49; type: cell-based; settings: YMA pH 7.0, 28° C., 40 hours
Protocol: as §1, §2, §3, §4

[14] = tested on: Candida albicans IAM 4888; test: MIC, two-fold agar dilution, C. albicans IAM 4888; type: cell-based; settings: IAM4888, YMA pH 7.0, 28° C., 40 hours
Protocol: as §1, §2, §3, §4

[15] = tested on: Aspergillus fumigatus IAM 2034; test: MIC, two-fold agar dilution, A. fumigatus IAM 2034; type: cell-based; settings: IAM2034
Protocol: as §1, §2, §3, §4

[16] = Candida albicans A9540, YMA pH 7.0, 28° C., 40 hours, read-out: MIC
[17] = Table 3, Candida albicans A9540, YMA, read-out: MIC Ca-4
[18] = Aspergillus fumigatus, A. fumigatus, mice
[19] = Aspergillus fumigatus, Table 2, A. fumigatus, mice, iv, 95% confidence limits in parentheses, read-out: PD50 (50% protection dose)
[20] = Cryptococcus neoformans IAM 4514, YMA pH 7.0, 28° C., 40 hours, read-out: MIC
[21] = Table 3, Cryptococcus neoformans IAM 4514, YMA, read-out: MIC Cn-2
[22] = Table 3, Trichophyton mentagrophytes #4329, YMA, read-out: MIC TM-4
[23] = Trichophyton mentagrophytes #4329, YMA pH 7.0, 28° C., 60 hours, read-out: MIC
[24] = A9540, 480 h, C. albicans, mice, iv
[25] = A9540, in Mus musculus, iv, 480 h, read-out: S/T (No. of survivors/tested)
[26] = Aspergillus fumigatus IAM 2034, YMA pH 7.0, 28° C., 40 hours, read-out: MIC
[27] = Table 3, Aspergillus fumigatus IAM 2034, YMA, read-out: MIC Af-3

| SMILES | MIC [1, 16] | MIC [1, 17] | MIC [2] | MIC [3] | responders at 6.3 mg/kg [4, 18] | responders at 12.5 mg/kg [4, 18] | responders at 25 mg/kg [4, 18] | responders at 50 mg/kg [4, 18] | ED50 [4, 19] | MIC [5] | MIC [6] | MIC [7] | solubility [8] | MIC [9] | MIC [10, 20] | MIC [10, 21] | MIC [11, 22] | MIC [11, 23] | ED50 [12, 24] | MIC [13] | other results |
| --- | --- | --- | --- | --- | --- | --- | --- | --- | --- | --- | --- | --- | --- | --- | --- | --- | --- | --- | --- | --- | --- |
| COc1cc(O)c2c(c1)C(=O)c1c(cc3c(c1O)-c1c(cc(C)c(C(=O)N[C@H](C)C(=O)O)c1O)[C@H](O[C@@H]1O[C@H](C)[C@H](NC(=N)N[N+](=O)[O-])[C@H](O[C@@H]4OC[C@@H](O)[C@H](O)[C@H]4O)[C@H]1O)[C@H]3O)C2=O [KHM-7, 4'-Nitroquanidinopradimicin C] | 3.1 µg/mL (≈ 3.39 µM) | 3.1 µg/mL (≈ 3.39 µM) | 1.6 µg/mL (≈ 1.75 µM) | 6.3 µg/mL (≈ 6.89 µM) | 20% | 40% | 0% | 20% | > 50 mg/kg | 12.5 µg/mL (≈ 13.7 µM) | 12.5 µg/mL (≈ 13.7 µM) | 3.1 µg/mL (≈ 3.39 µM) | > 20000 µg/mL | 3.1 µg/mL (≈ 3.39 µM) | 1.6 µg/mL (≈ 1.75 µM) | 1.6 µg/mL (≈ 1.75 µM) | 3.1 µg/mL (≈ 3.39 µM) | 3.1 µg/mL (≈ 3.39 µM) | 12 mg/kg | 3.1 µg/mL (≈ 3.39 µM) | ED50 ([4]; Table 3, Aspergillus fumigatus IAM 2034, iv, read-out: PD50 (mice) Af-3): > 50 mg/kg; responders at 6.3 mg/kg [12, 25]: 40%; responders at 12.5 mg/kg [12, 25]: 60%; responders at 25 mg/kg [12, 25]: 60%; responders at 50 mg/kg [12, 25]: 80%; MIC [14]: 3.1 µg/mL (≈ 3.39 µM); MIC [15, 26]: 3.1 µg/mL (≈ 3.39 µM); MIC [15, 27]: 3.1 µg/mL (≈ 3.39 µM) |
| CN[C@@H]1[C@H](O[C@@H]2OC[C@@H](O)[C@H](O)[C@H]2O)[C@@H](O)[C@H](O[C@H]2c3cc(C)c(C(=O)N[C@H](C)C(=O)O)c(O)c3-c3c(cc4c(c3O)C(=O)c3cc(OC)cc(O)c3C4=O)[C@@H]2O)O[C@@H]1C [Pradimicin A, reference compound] | 12.5 µg/mL (≈ 14.9 µM) | 12.5 µg/mL (≈ 14.9 µM) | 3.1 µg/mL (≈ 3.69 µM) | > 100 µg/mL | 0% | 20% | 60% | 100% | 23 mg/kg | > 100 µg/mL | > 100 µg/mL | 6.3 µg/mL (≈ 7.49 µM) | 20 µg/mL (≈ 23.8 µM) | 3.1 µg/mL (≈ 3.69 µM) | 1.6 µg/mL (≈ 1.9 µM) | 1.6 µg/mL (≈ 1.9 µM) | 3.1 µg/mL (≈ 3.69 µM) | 3.1 µg/mL (≈ 3.69 µM) | 10 mg/kg | 1.6 µg/mL (≈ 1.9 µM) | responders at 6.3 mg/kg ([12]; A9540, 480 h, C. albicans, mice, 6.3 mg/kg iv, 20th day post-infection, read-out: S/T (No. of survivors/tested) (converted)): 0%; responders at 12.5 mg/kg ([12]; A9540, 480 h, C. albicans, mice, 12.5 mg/kg iv, 20th day post-infection, read-out: S/T (No. of survivors/tested) (converted)): 80%; responders at 25 mg/kg ([12]; A9540, 480 h, C. albicans, mice, 25 mg/kg iv, 20th day post-infection, read-out: S/T (No. of survivors/tested) (converted)): 100%; responders at 50 mg/kg ([12]; A9540, 480 h, C. albicans, mice, 50 mg/kg iv, 20th day post-infection, read-out: S/T (No. of survivors/tested) (converted)): 100%; MIC [14]: 6.3 µg/mL (≈ 7.49 µM); MIC [15, 26]: 1.6 µg/mL (≈ 1.9 µM); MIC [15, 27]: 0.8 µg/mL (≈ 0.951 µM) |
